# Test results as given in publication PMC8141073, “Structurally Diverse Sesquiterpenoids with Anti-neuroinflammatory Activity from the Endolichenic Fungus Cryptomarasmius aucubae” (Natural Products and Bioprospecting, 2021).
# Key:
# [1] = tested on: NO production induced by LPS in BV-2 microglial cells; experiment: Nitric oxide (NO) production inhibitory assay (Griess reaction); type: cell-based, murine; conditions: for IC50 / inhibition at 20 µM: Mus musculus; for IC50: LPS (1 μg/mL)-induced BV-2 microglial cells, 24 h, 0.1–20.0 μM, read-out: IC50, inhibition of NO production; for inhibition at 20 µM / anti-inflammatory activity (reducing the release of NO), in words: LPS-induced BV-2 microglial cells
# Procedure: BV-2 cells were seeded into 96-well plates at 2 × 10^4 cells/100 μL of medium and incubated for 24 h. Then, cells were treated with 1 μg/mL of lipopolysaccharide (LPS) and various concentrations (0.1–20.0 μM) of test compounds (DMSO as solvent) for 24 h. An equal amount of DMSO and LPS were served as the controls; quercetin (J&K Scientific, Beijing, China) was taken as the positive control). The NO concentration in the medium was measured by using a Nitric Oxide Assay Kit, according to the accumulated levels of nitrite in the supernatants by a standard Griess reaction. As follows, 50 μL of the culture supernatant of BV-2 cells was reacted with 50 μL of Griess reagent I and Griess regent II successively in a 96-well plate. The absorbance at 570 nm of the mixture was measured using a microplate reader. IC50 values were calculated as the concentrations that reduced NO production by 50%. Quercetin was taken as the positive control.
# [2] = Cell viability by MTT assay; type: cell-based, murine; conditions: mouse, BV-2 microglial cells, percentage of the LPS-only treatment group, compounds at 20 μM, 1 μg/mL LPS, BV-2 cells
# Procedure: BV-2 murine microglial cells, acquired from Peking Union Medical College Cell Bank, were cultured in Dulbecco’s modified Eagle’s medium supplemented with 10% (v/v) heat-inactivated fetal bovine serum, penicillin (100 U/mL), and streptomycin ([…]) in carbon dioxide cell incubator. When cell growth density outnumbered 90%, BV-2 cells were seeded in 96-well plates at a density of 2 × 10^4/well, 100 μL) and incubated for 24 h. Next, the cells were treated with the compounds (DMSO as solvent) at 20 μM for 24 h in DMEM with 1 μg/mL LPS. Cells treated with DMSO alone were used as the negative control. After adding 20 μL of 10 mg/mL MTT reagent to each well, the samples were shaken lightly and incubated at 37 °C for 4 h. The supernatant was removed, the blue-purple crystals were fully dissolved in DMSO (200 μL), and the absorbance of each well was read at 570 nm (Tecan Sunrise, Switzerland). Percentage of cell viability is calculated as: (absorbance of treated well/absorbance of control well) × 100%.
Compound,IC50 [1],inhibition at 20 µM [1],"anti-inflammatory activity (reducing the release of NO), in words [1]","viability at 24 h, 20 µM [2]"
"CC(=O)O[C@@]12CC[C@]1(C)C[C@H]1C[C@@](C)(CO)CC1=C2C [Compound 5, sterpurol B]",9.06 ± 1.13 µM,99.3%,significant anti-inflammatory activity,107 ± 2.73%
"CC(=O)O[C@@]12C[C@H](O)[C@]1(C)C[C@H]1C[C@@](C)(CO)CC1=C2C [Compound 2, sterpurol E]",9.93 ± 0.99 µM,85.4%,moderate anti-inflammatory activity,97.1 ± 4%
"CC1=C2C[C@](C)(CO)C[C@@H]2C[C@@]2(C)CC[C@@]12O [Compound 4, sterpurol A]",15.3 ± 1.43 µM,73.1%,moderate anti-inflammatory activity,98.7 ± 1.18%
"CC(=O)OCC1(C)CC2=C(C)C3(OC(C)=O)CCC3(C)CC2C1 (centres unmarked) [Compound 1, sterpurol D]",14.8 ± 2.23 µM,75.9%,moderate anti-inflammatory activity,103 ± 4.73%

# The next lines start with results.
IC50 [1],Compound,inhibition at 20 µM [1],"anti-inflammatory activity (reducing the release of NO), in words [1]","viability at 24 h, 20 µM [2]"
> 20 µM,"CC1=CC2C(C[C@H]1O)[C@@](C)(O)CC[C@H]2C(C)C (stereo partly drawn) [Compound 7, murolane-2α, 9β-diol-3-ene]",51.7%,,
11.5 ± 0.58 µM,"CC1=C2C[C@@](C)(C(=O)O)C[C@H]2C[C@](C)(O)C12CC2 [Compound 6, paneolilludinic acid]",79.1%,moderate anti-inflammatory activity,104 ± 2.67%
9.75 ± 0.79 µM,"O=c1c(O)c(-c2ccc(O)c(O)c2)oc2cc(O)cc(O)c12 [Quercetin, quercetin, reference compound]",95.6%,,101.5 ± 0.83%
12.2 ± 0.4 µM,"C/C(=C\CO)CC/C=C(\C)CC[C@@H](O)C(C)(C)O [Compound 8, (–)-10,11-dihydroxyfarnesol]",76.8%,moderate anti-inflammatory activity,99.12 ± 0.18%
